Assays:
[1] = biological target: T1, PARP7 (Homo sapiens, UniProt Q7Z3E1); experiment: Inhibition of the compound on PARP7 protein activity (ADP-ribosylation, chemiluminescence); type: biochemical; settings: Histone H1 coated plate, Biotin-Labeled NAD+, 2 h at room temperature, chemiluminescence; read-out: PARP7 activity inhibition IC50
T1 construct: purchased BPS 80527
T1 sequence (Q7Z3E1 1-657): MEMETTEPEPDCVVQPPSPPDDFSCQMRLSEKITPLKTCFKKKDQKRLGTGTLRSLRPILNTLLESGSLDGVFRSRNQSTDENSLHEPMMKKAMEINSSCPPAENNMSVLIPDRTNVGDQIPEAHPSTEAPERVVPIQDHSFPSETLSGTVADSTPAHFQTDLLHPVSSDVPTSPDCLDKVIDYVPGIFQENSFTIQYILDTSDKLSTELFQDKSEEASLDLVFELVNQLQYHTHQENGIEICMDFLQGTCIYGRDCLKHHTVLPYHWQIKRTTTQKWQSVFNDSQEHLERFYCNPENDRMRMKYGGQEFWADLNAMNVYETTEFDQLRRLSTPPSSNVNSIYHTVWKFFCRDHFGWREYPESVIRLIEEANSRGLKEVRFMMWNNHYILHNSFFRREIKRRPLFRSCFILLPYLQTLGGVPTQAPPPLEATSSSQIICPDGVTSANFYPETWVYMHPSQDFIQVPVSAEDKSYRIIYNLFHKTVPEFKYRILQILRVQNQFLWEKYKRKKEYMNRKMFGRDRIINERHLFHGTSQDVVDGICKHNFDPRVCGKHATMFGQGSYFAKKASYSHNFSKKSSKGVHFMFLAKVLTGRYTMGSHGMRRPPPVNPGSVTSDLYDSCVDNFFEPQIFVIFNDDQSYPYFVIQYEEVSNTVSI

[2] = tested on: NCI-H1373 cells; experiment: Inhibition on NCI-H1373 cell proliferation (Cell-Titer-Glo); type: cell-based; settings: Homo sapiens, 144 h; NCI-H1373 cells, incubation for 6 days, Cell-Titer-Glo; read-out: NCI-H1373 cell proliferation inhibition IC50
[3] = biological target: T1, PARP7; experiment: PARP7 TR-FRET binding inhibition (displacement of probe RBN011147); settings: TR-FRET, Biotin-labeled probe RBN011147; read-out: PARP7 binding inhibition IC50
Procedure: The ability of the compound to substitute the probe RBN011147 (Wigle et al., 2020, Cell Chemical Biology 27, 877-887) was tested by a TR-FRET method, and IC50 was calculated to evaluate the binding ability of the compound to PARP7. […]

Row | Compound | IC50 [1] [nM] | IC50 [2] [nM] | IC50 [3] [nM]
1 | CC(CCCNC(=O)c1ccc(-c2csc(C(F)(F)F)n2)nc1)Nc1cn[nH]c(=O)c1C(F)(F)F (stereo not drawn) [Example 177] | < 3 | 1000 to 3000 | < 10
2 | CC(CCCNC(=O)c1cnc(-c2cscn2)c(F)c1)Nc1cn[nH]c(=O)c1C(F)(F)F (stereo not drawn) [Example 178] | < 3 | > 3000 | 10 to 30
3 | CC(CCCNC(=O)c1ccc(-c2cscn2)cc1F)Nc1cn[nH]c(=O)c1C(F)(F)F (stereo not drawn) [Example 179] | < 3 | > 3000 | 10 to 30
4 | CC(CCCNC(=O)c1ncc(-c2cscn2)cc1F)Nc1cn[nH]c(=O)c1C(F)(F)F (stereo not drawn) [Example 182] | 3 to 10 | > 3000 | 30 to 100
5 | CC(CCCNC(=O)c1ncc(-n2cc(C(F)(F)F)cn2)cc1F)Nc1cn[nH]c(=O)c1C(F)(F)F (stereo not drawn) [Example 183] | < 3 | 300 to 1000 | < 10
6 | CC(CCCNC(=O)c1cnc(-c2ncc(C(F)(F)F)s2)c(F)c1)Nc1cn[nH]c(=O)c1C(F)(F)F (stereo not drawn) [Example 184] | < 3 | 300 to 1000 | < 10
7 | CC(CCCNC(=O)c1ccc(-c2cc(C(F)(F)F)n(C)n2)cc1)Nc1cn[nH]c(=O)c1C(F)(F)F (stereo not drawn) [Example 185] | < 3 | 300 to 1000 | 30 to 100
8 | CC(CCCNC(=O)c1ccc(-c2noc(C3CC3)n2)cc1)Nc1cn[nH]c(=O)c1C(F)(F)F (stereo not drawn) [Example 186] | < 3 | 1000 to 3000 | 10 to 30
9 | CC(CCCNC(=O)c1ccc(-c2ccc(-c3cnco3)cn2)cc1)Nc1cn[nH]c(=O)c1C(F)(F)F (stereo not drawn) [Example 188] | < 3 | > 3000 | 10 to 30
10 | Cc1nc(-c2ccc(C(=O)NCCCC(C)Nc3cn[nH]c(=O)c3C(F)(F)F)cc2)sc1C (stereo not drawn) [Example 189] | < 3 | 1000 to 3000 | 30 to 100
11 | CC(CCCNC(=O)c1ccc(-c2nn(C)cc2F)cc1)Nc1cn[nH]c(=O)c1C(F)(F)F (stereo not drawn) [Example 192] | 3 to 10 | > 3000 | 30 to 100
12 | CC(CCCNC(=O)c1cnc(-c2cc(C(F)(F)F)sn2)c(F)c1)Nc1cn[nH]c(=O)c1C(F)(F)F (stereo not drawn) [Example 205] | < 3 | 300 to 1000 | < 10
13 | CC(CCCNC(=O)c1ccc(-n2cc(C(F)(F)F)cn2)nc1)Nc1cn[nH]c(=O)c1C(F)(F)F (stereo not drawn) [Example 206] | < 3 | 1000 to 3000 | < 10
14 | CC(CCCNC(=O)c1ccc(-c2cc(C(F)(F)F)sn2)nc1)Nc1cn[nH]c(=O)c1C(F)(F)F (stereo not drawn) [Example 207] | < 3 | 1000 to 3000 | 10 to 30
15 | CC(CCCNC(=O)c1ccc(-c2ncc(C(F)(F)F)s2)cn1)Nc1cn[nH]c(=O)c1C(F)(F)F (stereo not drawn) [Example 209] | < 3 | < 300 | 10 to 30
16 | CC(CCCNC(=O)c1ccc(-c2ncc(C(F)(F)F)s2)nc1)Nc1cn[nH]c(=O)c1C(F)(F)F (stereo not drawn) [Example 211] | < 3 | 1000 to 3000 | < 10
17 | CC(CCCNC(=O)c1ccc(-c2cc(C(F)(F)F)sn2)cc1F)Nc1cn[nH]c(=O)c1C(F)(F)F (stereo not drawn) [Example 212] | < 3 | < 300 | < 10
18 | CC(CCCNC(=O)c1ccc(-c2cc(C(F)(F)F)nn2C)cc1)Nc1cn[nH]c(=O)c1C(F)(F)F (stereo not drawn) [Example 245] | 10 to 30 | > 3000 | > 100

— patent EP4800012A1, “COMPOUND ACTING AS PARP7 INHIBITOR” (Dovetree Medicines Unus, Inc., priority 2023, dated 2025)
